# Where a SMILES comes first, the peptide text is derived from it. Bridges are numbered along the chain shown (N, C = ends). [ ]: non-standard residue; d: D form. The star is where a group is joined. Tridecanoyl = CCCCCCCCCCCCC(=O)*; Undecanoyl = CCCCCCCCCCC(=O)*; dOrn = NCCC[C@@H](N)C(=O)O
# Columns and labels:
# [1] = system: P. aeruginosa CVM 40144 (PER-1); assay type: cell-based, Pseudomonas aeruginosa
# Excerpt: (§1) The same MIC assay as in Example 6 was used to determine the antimicrobial susceptibility of Compound A, L-form (FIG. 15), and several variants. One variant was Compound A, D-form, with D-Lysine at position 7. Compound B is a variant in the fatty acid chain, with a fatty acid chain composition of C15H29O, and having D-Lys at position 7. Compound C is a variant in the fatty acid chain with a fatty acid chain composition of C11H21O, and having D-Lys at position 7. Variant D is a sequence variant with Phe at position 6 of the cyclic peptide, and having D-Lys at position 7. All variants were chemically synthesized.
# [2] = system: E. cloacae CVM 15101 (P99); assay type: cell-based, Enterobacter cloacae
# Excerpt: as §1
# [3] = system: Serratia marcescens SBJ-8283; assay type: cell-based; conditions: SBJ-8283
# Excerpt: as §1
# [4] = system: Salmonella CVM 1290 (cmy2); assay type: cell-based
# Excerpt: as §1
# [5] = system: Enterobacter cloacae SBJ-9395; assay type: cell-based; conditions: SBJ-9395
# Excerpt: as §1
# [6] = system: Salmonella CVM 40119 (tem 12); assay type: cell-based
# Excerpt: as §1
# [7] = system: Serratia marcescens SAMN04022954; assay type: cell-based; conditions: SAMN04022954
# Excerpt: as §1
# [8] = system: Serratia marcescens SBJ-9047; assay type: cell-based; conditions: SBJ-9047
# Excerpt: as §1
# [9] = system: Salmonella CVM 40118 (oxa-1); assay type: cell-based
# Excerpt: as §1
# [10] = system: Serratia marcescens SAMN 04276915; assay type: cell-based; conditions: SAMN 04276915
# Excerpt: as §1
# S. aureus 14 = test: microbe, parasite or virus in culture; assay type: cell-based, Staphylococcus aureus; conditions: 14
# Excerpt: as §1
# S. aureus 2 = test: microbe, parasite or virus in culture; assay type: cell-based, Staphylococcus aureus; conditions: 2
# Excerpt: as §1
# S. aureus 12 = test: microbe, parasite or virus in culture; assay type: cell-based, Staphylococcus aureus; conditions: 12
# Excerpt: as §1
# S. aureus 4 = test: microbe, parasite or virus in culture; assay type: cell-based, Staphylococcus aureus; conditions: 4
# Excerpt: as §1
# S. aureus 10 = test: microbe, parasite or virus in culture; assay type: cell-based, Staphylococcus aureus; conditions: 10
# Excerpt: as §1
# S. aureus 6 = test: microbe, parasite or virus in culture; assay type: cell-based, Staphylococcus aureus; conditions: 6
# Excerpt: as §1
# S. aureus 19 = test: microbe, parasite or virus in culture; assay type: cell-based, Staphylococcus aureus; conditions: 19
# Excerpt: as §1
# S. aureus 8 = test: microbe, parasite or virus in culture; assay type: cell-based, Staphylococcus aureus; conditions: 8
# Excerpt: as §1
# [11] = system: E. coli CVM 40127 (oxa-2); assay type: cell-based, Escherichia coli
# Excerpt: as §1
# E. coli CVM40146 (vim-1) = assay type: cell-based, Escherichia coli
# Excerpt: as §1
# [12] = system: E. coli CVM 40134 (ctx-m-15); assay type: cell-based, Escherichia coli
# Excerpt: as §1
# [13] = system: E. coli CVM 35778 (ctx-m-2); assay type: cell-based, Escherichia coli
# Excerpt: as §1
# [14] = system: E. coli CVM 40128 (oxa-7); assay type: cell-based, Escherichia coli
# Excerpt: as §1
# [15] = system: E. coli CVM 40141 (imp-1); assay type: cell-based, Escherichia coli
# Excerpt: as §1
# [16] = system: E. coli CVM 40131 (ctx-m-2); assay type: cell-based, Escherichia coli
# Excerpt: as §1
# [17] = system: E. coli CVM 40136 (tem 52b); assay type: cell-based, Escherichia coli
# Excerpt: as §1
# [18] = system: E. coli CVM 40147 (vim-2); assay type: cell-based, Escherichia coli
# Excerpt: as §1
# [19] = system: E. coli CVM 40143 (act-1); assay type: cell-based, Escherichia coli
# Excerpt: as §1
# E. coli CVM 15104 (shv3) = assay type: cell-based, Escherichia coli
# Excerpt: as §1
# [20] = system: E. coli CVM 40132 (ctx-m-9); assay type: cell-based, Escherichia coli
# Excerpt: as §1
# [21] = system: E. coli CVM 40130 (oxa-9); assay type: cell-based, Escherichia coli
# Excerpt: as §1
# [22] = system: E. coli CVM 40133 (ctx-m-14); assay type: cell-based, Escherichia coli
# Excerpt: as §1
# E. coli CVM 15100 (mir1) = assay type: cell-based, Escherichia coli
# Excerpt: as §1
# E. coli CVM 15103 (tem2) = assay type: cell-based, Escherichia coli
# Excerpt: as §1
# [23] = system: E. coli CVM 40139 (fox-1); assay type: cell-based, Escherichia coli
# Excerpt: as §1
# E. coli CVM40148 (veb-1) = assay type: cell-based, Escherichia coli
# Excerpt: as §1
# [24] = system: E. coli CVM 40126 (oxa-1); assay type: cell-based, Escherichia coli
# Excerpt: as §1
# [25] = system: E. coli CVM 40138 (LCR-1); assay type: cell-based, Escherichia coli
# Excerpt: as §1
# [26] = system: E. coli CVM 40137 (DHA-1); assay type: cell-based, Escherichia coli
# Excerpt: as §1
# [27] = system: E. coli CVM 40129 (oxa-5); assay type: cell-based, Escherichia coli
# Excerpt: as §1
SMILES,MIC [1],MIC [2],MIC [4],MIC [6],MIC [7],MIC [9],MIC [10],MIC [11],MIC (E. coli CVM40146 (vim-1)),MIC [12],MIC [13],MIC [14],MIC [15],MIC [16],MIC [17],MIC [18],MIC [19],MIC (E. coli CVM 15104 (shv3)),MIC [20],MIC [21],also measured
CCCCCCCCCCCCC(=O)N[C@H](CCCN)C(=O)N[C@H](C(=O)N[C@@H]1C(=O)N[C@H](CCCN)C(=O)N[C@@H](CO)C(=O)N[C@@H](Cc2ccccc2)C(=O)N[C@H](CCCCN)C(=O)N[C@H](CO)C(=O)N[C@@H]([C@@H](C)CC)C(=O)N2CCC[C@H]2C(=O)N[C@@H]([C@@H](C)CC)C(=O)N2CCC[C@H]2C(=O)N[C@@H]([C@@H](C)CC)C(=O)O[C@@H]1C)C(C)C [Variant D] (Tridecanoyl-[dOrn]VT[dOrn]SF[dK][dS]IPIPI; ester 3-C; N-terminus assumed),16 µg/mL,8 µg/mL,8 µg/mL,8 µg/mL,≥128 µg/mL,8 µg/mL,≥128 µg/mL,8 µg/mL,8 µg/mL,8 µg/mL,16 µg/mL,8 µg/mL,16 µg/mL,8 µg/mL,16 µg/mL,16 µg/mL,16 µg/mL,16 µg/mL,8 µg/mL,8 µg/mL,MIC [3]: 32 µg/mL; MIC [5]: 32 µg/mL; MIC [8]: ≥128 µg/mL; MIC (S. aureus 14): 8 µg/mL; MIC (S. aureus 2): 8 µg/mL; MIC (S. aureus 12): 8 µg/mL; MIC (S. aureus 4): 8 µg/mL; MIC (S. aureus 10): 8 µg/mL; MIC (S. aureus 6): 8 µg/mL; MIC (S. aureus 19): 8 µg/mL; MIC (S. aureus 8): 8 µg/mL; MIC [22]: 8 µg/mL; MIC (E. coli CVM 15100 (mir1)): 8 µg/mL; MIC (E. coli CVM 15103 (tem2)): 8 µg/mL; MIC [23]: 8 µg/mL; MIC (E. coli CVM40148 (veb-1)): 8 µg/mL; MIC [24]: 8 µg/mL; MIC [25]: 8 µg/mL; MIC [26]: 8 µg/mL; MIC [27]: 8 µg/mL
CCCCCCCCCCC(=O)N[C@H](CCCN)C(=O)N[C@H](C(=O)N[C@@H]1C(=O)N[C@H](CCCN)C(=O)N[C@@H](CO)C(=O)N[C@@H](Cc2ccc(O)cc2)C(=O)N[C@H](CCCCN)C(=O)N[C@H](CO)C(=O)N[C@@H]([C@@H](C)CC)C(=O)N2CCC[C@H]2C(=O)N[C@@H]([C@@H](C)CC)C(=O)N2CCC[C@H]2C(=O)N[C@@H]([C@@H](C)CC)C(=O)O[C@@H]1C)C(C)C [Compound C] (Undecanoyl-[dOrn]VT[dOrn]SY[dK][dS]IPIPI; ester 3-C; N-terminus assumed),16 µg/mL,8 µg/mL,16 µg/mL,8 µg/mL,64 µg/mL,4 µg/mL,≥128 µg/mL,8 µg/mL,8 µg/mL,8 µg/mL,16 µg/mL,8 µg/mL,32 µg/mL,8 µg/mL,8 µg/mL,16 µg/mL,8 µg/mL,8 µg/mL,8 µg/mL,8 µg/mL,MIC [3]: 32 µg/mL; MIC [5]: 8 µg/mL; MIC [8]: 64 µg/mL; MIC (S. aureus 14): 8 µg/mL; MIC (S. aureus 2): 8 µg/mL; MIC (S. aureus 12): 8 µg/mL; MIC (S. aureus 4): 8 µg/mL; MIC (S. aureus 10): 8 µg/mL; MIC (S. aureus 6): 8 µg/mL; MIC (S. aureus 19): 8 µg/mL; MIC (S. aureus 8): 8 µg/mL; MIC [22]: 8 µg/mL; MIC (E. coli CVM 15100 (mir1)): 8 µg/mL; MIC (E. coli CVM 15103 (tem2)): 8 µg/mL; MIC [23]: 8 µg/mL; MIC (E. coli CVM40148 (veb-1)): 8 µg/mL; MIC [24]: 8 µg/mL; MIC [25]: 8 µg/mL; MIC [26]: 8 µg/mL; MIC [27]: 8 µg/mL
CCCCCCCCCCCCC(=O)N[C@H](CCCN)C(=O)N[C@H](C(=O)N[C@@H]1C(=O)N[C@H](CCCN)C(=O)N[C@@H](CO)C(=O)N[C@@H](Cc2ccc(O)cc2)C(=O)N[C@@H](CCCCN)C(=O)N[C@H](CO)C(=O)N[C@@H]([C@@H](C)CC)C(=O)N2CCC[C@H]2C(=O)N[C@@H]([C@@H](C)CC)C(=O)N2CCC[C@H]2C(=O)N[C@@H]([C@@H](C)CC)C(=O)O[C@@H]1C)C(C)C [Compound A L-form] (Tridecanoyl-[dOrn]VT[dOrn]SYK[dS]IPIPI; ester 3-C),32 µg/mL,8 µg/mL,8 µg/mL,8 µg/mL,≥128 µg/mL,4 µg/mL,≥128 µg/mL,8 µg/mL,8 µg/mL,8 µg/mL,8 µg/mL,8 µg/mL,32 µg/mL,4 µg/mL,8 µg/mL,16 µg/mL,8 µg/mL,8 µg/mL,8 µg/mL,8 µg/mL,MIC [22]: 8 µg/mL; MIC (E. coli CVM 15100 (mir1)): 8 µg/mL; MIC (E. coli CVM 15103 (tem2)): 8 µg/mL; MIC [23]: 8 µg/mL; MIC (E. coli CVM40148 (veb-1)): 8 µg/mL; MIC [24]: 4 µg/mL; MIC [25]: 8 µg/mL; MIC [26]: 8 µg/mL; MIC [27]: 4 µg/mL

# — patent publication US10906940B2, “Antimicrobial peptides, pharmaceutical compositions, and methods of use thereof” (priority 2014, dated 2021)
